Here are results for three molecules from US7612200B2, “Inhibitors of protein kinases” (Locus Pharmaceuticals, Inc., priority 2004, dated 2009).

One test has as its target PDGFR-beta (Homo sapiens, UniProt P09619). Description: Kinase activity at ATP Km,app, PDGFR-beta. It counts as biochemical. As to conditions: 40 min, compound 2 μM. The method, then:
(§1) PDGFRβ Kinase Activity: In a final reaction volume of 25 μl, PDGFRβ (h) (5-10 mU) is incubated with 8 mM MOPS pH 7.0 0.2 mM EDTA, 0.1 mg/ml poly(Glu, Tyr) 4:1, 10 mM MnCl2, 10 mM MgAcetate and [γ-^33P-ATP] (specific activity approx. 500 cpm/pmol, concentration as required). The reaction is initiated by the addition of the MgATP mix. After incubation for 40 minutes at room temperature, the reaction is stopped by the addition of 5 μl of a 3% phosphoric acid solution. 10 μl of the reaction is then spotted onto a Filtermat A and washed three times for 5 minutes in 75 mM phosphoric acid and once in methanol prior to drying and scintillation counting.

For a further test, the target named is PKC-alpha (Homo sapiens, UniProt P17252). Briefly: Kinase activity at ATP Km,app, PKC-alpha. It counts as biochemical. As to conditions: 40 min, compound 2 μM. The method, then: PKCα Kinase Activity: In a final reaction volume of 25 μl, PKCα (h) (5-10 mU) is incubated with 20 mM HEPES pH 7.4, 0.03% Triton X-100, 0.1 mM CaCl2, 0.1 mg/ml phosphatidylserine, 10 μg/ml diacylglycerol, 0.1 mg/ml histone Hi, 10 mM MgAcetate and [γ-^33P-ATP] (specific activity approx. 500 cpm/pmol, concentration as required). The reaction is initiated by the addition of the MgATP mix. After incubation for 40 minutes at room temperature, the reaction is stopped by the addition of 5 μl of a 3% phosphoric acid solution. 10 μl of the reaction is then spotted onto a P30 filtermat and washed three times for 5 minutes in 75 mM phosphoric acid and once in methanol prior to drying and scintillation counting.

The next test concerns Abl1. Description: Kinase activity at ATP Km,app, Abl1. In kind it is biochemical, mouse. As to conditions: compound 2 μM. How it is done:
Abl Kinase activity: In a final reaction volume of 25 μL, Able (m) (5-10 mU) is incubated with […] pH 7.0, 0.2 mM EDTA, 50 μM EAIYAAPFAKKK, 10 mM MgAcetate and [γ-^33P-ATP] (specific activity approx. 500 cpm/pmol, concentration as required). The reaction is initiated by the addition of the MgATP mix. After incubation for 40 minutes at room temperature, the reaction is stopped by the addition of 5 μL of a 3% phosphoric acid solution. 10 μL of the reaction is then spotted onto a P30 filtermat and washed three times for 5 minutes in 75 mM phosphoric acid and once in methanol prior to drying and scintillation counting.

For a further test, the target named is T1, EphB4 (Homo sapiens, UniProt P54760).
T1 sequence (P54760 16-987): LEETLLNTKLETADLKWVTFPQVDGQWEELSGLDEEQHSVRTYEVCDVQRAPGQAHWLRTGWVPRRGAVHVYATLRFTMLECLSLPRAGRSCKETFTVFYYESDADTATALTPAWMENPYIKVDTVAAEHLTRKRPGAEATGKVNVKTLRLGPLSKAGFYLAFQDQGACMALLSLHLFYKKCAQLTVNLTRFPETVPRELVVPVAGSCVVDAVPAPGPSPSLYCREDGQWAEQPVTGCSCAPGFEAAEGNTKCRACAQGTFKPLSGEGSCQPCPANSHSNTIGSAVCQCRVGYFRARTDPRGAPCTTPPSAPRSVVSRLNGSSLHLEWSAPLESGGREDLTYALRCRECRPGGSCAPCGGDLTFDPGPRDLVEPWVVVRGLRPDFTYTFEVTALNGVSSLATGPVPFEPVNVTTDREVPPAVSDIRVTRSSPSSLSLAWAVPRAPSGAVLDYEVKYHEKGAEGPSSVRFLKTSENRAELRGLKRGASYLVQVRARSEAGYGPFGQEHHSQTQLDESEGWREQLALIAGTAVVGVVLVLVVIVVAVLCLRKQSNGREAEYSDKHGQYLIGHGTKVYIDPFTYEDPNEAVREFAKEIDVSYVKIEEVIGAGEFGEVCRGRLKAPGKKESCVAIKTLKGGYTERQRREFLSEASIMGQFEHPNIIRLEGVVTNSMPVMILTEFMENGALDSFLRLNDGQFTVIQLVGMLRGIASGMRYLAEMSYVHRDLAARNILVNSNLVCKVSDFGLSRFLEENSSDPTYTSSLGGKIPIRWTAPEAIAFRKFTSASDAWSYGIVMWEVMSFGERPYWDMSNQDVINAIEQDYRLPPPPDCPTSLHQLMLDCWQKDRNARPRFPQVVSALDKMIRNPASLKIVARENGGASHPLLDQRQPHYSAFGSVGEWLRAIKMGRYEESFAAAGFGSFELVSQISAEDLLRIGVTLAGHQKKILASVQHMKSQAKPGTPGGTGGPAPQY
Description: Kinase activity at ATP Km,app, EphB4. As to conditions: 40 min, compound 2 μM. In kind it is biochemical. The method, then:
as §1, with “EphB4” for “PDGFRβ”, “7.0,” for “7.0”, “EDTA,” for “EDTA, 0.1 mg/ml poly(Glu, Tyr) 4:1,”, “MnCl2, 0.1 mg/ml poly(Glue, Tyr) 4:1,” for “MnCl2,”, “incubatin” for “incubation”, “scintillating” for “scintillation”

PDGFR-beta, sequence (P09619 33-1106): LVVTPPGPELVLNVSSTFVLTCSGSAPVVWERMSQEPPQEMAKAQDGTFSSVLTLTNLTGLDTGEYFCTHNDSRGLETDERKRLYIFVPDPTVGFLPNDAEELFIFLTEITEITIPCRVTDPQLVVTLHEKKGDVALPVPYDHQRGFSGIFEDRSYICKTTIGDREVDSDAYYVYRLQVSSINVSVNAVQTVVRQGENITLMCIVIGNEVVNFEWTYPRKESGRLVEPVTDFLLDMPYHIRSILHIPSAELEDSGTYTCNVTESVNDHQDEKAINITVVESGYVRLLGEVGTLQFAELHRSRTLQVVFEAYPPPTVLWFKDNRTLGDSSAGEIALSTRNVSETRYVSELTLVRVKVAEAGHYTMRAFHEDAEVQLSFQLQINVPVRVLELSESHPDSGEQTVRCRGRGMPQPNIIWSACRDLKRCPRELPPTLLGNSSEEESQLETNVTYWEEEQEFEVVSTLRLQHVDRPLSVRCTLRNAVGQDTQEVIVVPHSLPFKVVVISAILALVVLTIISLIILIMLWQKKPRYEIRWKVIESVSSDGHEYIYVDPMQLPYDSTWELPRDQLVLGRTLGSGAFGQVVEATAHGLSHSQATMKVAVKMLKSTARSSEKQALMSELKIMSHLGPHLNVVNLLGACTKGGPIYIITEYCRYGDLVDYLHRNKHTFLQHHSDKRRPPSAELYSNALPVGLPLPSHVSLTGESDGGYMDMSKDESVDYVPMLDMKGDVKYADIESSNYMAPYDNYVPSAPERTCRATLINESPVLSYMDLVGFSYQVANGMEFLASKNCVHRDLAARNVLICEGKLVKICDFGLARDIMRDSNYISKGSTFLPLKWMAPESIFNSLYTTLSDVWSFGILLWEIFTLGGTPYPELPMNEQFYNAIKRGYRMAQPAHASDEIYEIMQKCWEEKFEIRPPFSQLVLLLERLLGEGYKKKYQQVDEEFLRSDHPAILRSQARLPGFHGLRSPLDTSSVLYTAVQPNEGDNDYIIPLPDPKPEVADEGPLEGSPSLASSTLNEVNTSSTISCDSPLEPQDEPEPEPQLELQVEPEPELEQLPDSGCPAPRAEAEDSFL

For `CC(C)(C)c1cc(C(=O)N2CCNS(=O)(=O)CC2)c(NC(=O)Nc2ccc(Oc3ccncc3)cc2)s1` [Example 1, 1-(5-tert-Butyl-3-(1,1-dioxo-1λ^6-[1,2,5]thiadiazepane-5-carbonyl)thiophen-2-yl)-3-(4-(pyridin-4-yloxy)phenyl)urea], the values for the inhibition at 2 µM against PDGFR-beta, against PKC-alpha and at EphB4 were 26 to 50%, 0 to 25% and 76 to 100%, respectively. The “% Inhibition at ATP Km,app” value in the test on Abl1 was 0-25%.

`CC(C)(C)c1cc(C(=O)N2CCNC(=O)C2)c(NC(=O)Nc2ccc(Oc3ccncc3)cc2)s1` [Example 2, 1-(5-tert-Butyl-3-(3-oxo-piperazine-1-carbonyl)thiophen-2-yl)-3-(4-(pyridin-4-yloxy)phenyl)urea]: the inhibition (as a rule, the change of the read-out against control, counted positive when it falls) at 2 µM against PDGFR-beta is 26 to 50%; against PKC-alpha it was 0 to 25%; at EphB4, 76 to 100%. Further, the “% Inhibition at ATP Km,app” value in the test on Abl1 is reported as 0-25%.

As for `CC(C)(C)c1cc(C(=O)N2CCNC(=O)CC2)c(NC(=O)Nc2ccc(Oc3ccncc3)cc2)s1` [Example 4, 1-(5-tert-Butyl-3-(5-oxo-[1,4]diazepane-1-carbonyl)thiophen-2-yl)-3-(4-(pyridin-4-yloxy)phenyl)urea], the figures for the inhibition at 2 µM against PDGFR-beta, against PKC-alpha and at EphB4 were 26 to 50%, 0 to 25% and 76 to 100%, respectively. In the test on Abl1, the “% Inhibition at ATP Km,app” value is 0-25%.
